Assay results: patent US5789431A, “Naphthoquinone antitumor compound and method” (The University of North Carolina at Chapel Hill, priority 1996, dated 1998)

Legend:
[1] = test system: OVCAR-3; assay: in vitro ovarian cancer cell growth inhibition (NCI screen)
[2] = test system: PC-3; assay: in vitro prostate cancer cell growth inhibition (NCI screen)
[3] = test system: RXF-393; assay: in vitro renal cancer cell growth inhibition (NCI screen)
[4] = test system: COLO-205; assay: in vitro colon cancer cell growth inhibition (NCI screen)
[5] = test system: HCT-116; assay: as above
[6] = test system: MALME-3M; assay: in vitro melanoma cell growth inhibition (NCI screen)
[7] = test system: HCT-15; assay: in vitro colon cancer cell growth inhibition (NCI screen)
[8] = test system: HT 29; assay: as above
[9] = test system: M14; assay: in vitro melanoma cell growth inhibition (NCI screen)
[10] = test system: UACC-257; assay: as above
[11] = test system: SK-MEL-5; assay: as above
[12] = test system: NCI-H522; assay: in vitro non-small cell lung cancer cell growth inhibition (NCI screen)
[13] = test system: SW 620; assay: in vitro colon cancer cell growth inhibition (NCI screen)
[14] = test system: CCRF-CEM; assay: in vitro leukemia cell growth inhibition (NCI screen)
[15] = test system: MCF7/ADR-RES; assay: in vitro breast cancer cell growth inhibition (NCI screen)
[16] = test system: MOLT-4; assay: in vitro leukemia cell growth inhibition (NCI screen)
[17] = test system: NCI-H460; assay: in vitro non-small cell lung cancer cell growth inhibition (NCI screen)
[18] = test system: HL-60(TB); assay: in vitro leukemia cell growth inhibition (NCI screen)
[19] = test system: SR; assay: as above
[20] = test system: SF-268; assay: in vitro CNS cancer cell growth inhibition (NCI screen)
[21] = test system: M19-MEL; assay: in vitro melanoma cell growth inhibition (NCI screen)
[22] = test system: UACC-62; assay: as above
[23] = test system: K-562; assay: in vitro leukemia cell growth inhibition (NCI screen)
[24] = test system: U 251; assay: in vitro CNS cancer cell growth inhibition (NCI screen)
[25] = test system: DLD-1; assay: in vitro colon cancer cell growth inhibition (NCI screen)
[26] = test system: LXFL 529; assay: in vitro non-small cell lung cancer cell growth inhibition (NCI screen)
[27] = test system: SF-539; assay: in vitro CNS cancer cell growth inhibition (NCI screen)
[28] = test system: LOX1MVI; assay: in vitro melanoma cell growth inhibition (NCI screen)
[29] = test system: RPMI-8226; assay: in vitro leukemia cell growth inhibition (NCI screen)
[30] = test system: HOP-92; assay: in vitro non-small cell lung cancer cell growth inhibition (NCI screen)
[31] = test system: OVCAR-4; assay: in vitro ovarian cancer cell growth inhibition (NCI screen); settings: OVACR-4
[32] = test system: SK-MEL-2; assay: in vitro melanoma cell growth inhibition (NCI screen)
[33] = test system: ACHN; assay: in vitro renal cancer cell growth inhibition (NCI screen)
[34] = test system: IGROV1; assay: in vitro ovarian cancer cell growth inhibition (NCI screen)
[35] = test system: T-47D; assay: in vitro breast cancer cell growth inhibition (NCI screen)
[36] = test system: human tumor cell lines; type: cell-based; settings: cancer cell line panel
[37] = test system: NCI-H23; assay: in vitro non-small cell lung cancer cell growth inhibition (NCI screen)

Structure (SMILES)	cytotoxicity log GI50 [1]	cytotoxicity log GI50 [5]	cytotoxicity log GI50 [6]	cytotoxicity log GI50 [7]	cytotoxicity log GI50 [11]	cytotoxicity log GI50 [12]	cytotoxicity log GI50 [17]	cytotoxicity log GI50 [18]	cytotoxicity log GI50 [21]	cytotoxicity log GI50 [22]	cytotoxicity log GI50 [23]	cytotoxicity log GI50 [25]	cytotoxicity log GI50 [28]	cytotoxicity log GI50 [30]	cytotoxicity log GI50 [37]	further results
CCNC1=C(NC(=O)CC)C(=O)c2ccccc2C1=O [Compound 45]	-4.49 M	-4.44 M	-4.64 M	-4.19 M	-4.27 M	-4.34 M										cytotoxicity log GI50 [2]: -4.37 M; cytotoxicity log GI50 [3]: -4.32 M; cytotoxicity log GI50 [4]: -4.33 M; cytotoxicity log GI50 [8]: -4.46 M; cytotoxicity log GI50 [9]: -4.50 M; cytotoxicity log GI50 [10]: -4.52 M; cytotoxicity log GI50 [13]: -4.22 M; cytotoxicity log GI50 [14]: -4.25 M; cytotoxicity log GI50 [15]: -4.23 M
Cc1nc2c(n1CCC(C)C)C(=O)c1ccccc1C2=O [Compound 11]		-5.17 M		-4.93 M	-4.84 M		-5.22 M	-5.22 M	-4.84 M	-4.91 M	-5.09 M	-4.95 M	-4.83 M			cytotoxicity log GI50 [4]: -4.84 M; cytotoxicity log GI50 [16]: -5.08 M; cytotoxicity log GI50 [19]: -5.33 M; cytotoxicity log GI50 [20]: -4.84 M; cytotoxicity log GI50 [24]: -4.90 M; cytotoxicity log GI50 [26]: -4.88 M; cytotoxicity log GI50 [14]: -4.87 M; cytotoxicity log GI50 [27]: -4.92 M
CCC(C)NC1=C(NC(C)=O)C(=O)c2ccccc2C1=O (stereo not drawn) [Compound 30]	-4.39 M			-4.34 M				-4.76 M			-4.36 M	-4.56 M	-4.81 M			cytotoxicity log GI50 [29]: -4.87 M; cytotoxicity log GI50 [13]: -4.65 M; cytotoxicity log GI50 [14]: -4.66 M
CCC(CC)NC1=C(NC(C)=O)C(=O)c2ccccc2C1=O [Compound 34]														-6.47 M		
O=C1c2ccccc2C(=O)c2[nH]c(Cc3ccc(F)cc3)nc21 [Compound 4c]	-5.27 M		-4.84 M	-5.19 M								-5.40 M				cytotoxicity log GI50 [3]: -5.16 M; cytotoxicity log GI50 [31]: -4.83 M; cytotoxicity log GI50 [32]: -4.86 M; cytotoxicity log GI50 [9]: -4.82 M; cytotoxicity log GI50 [33]: -4.85 M; cytotoxicity log GI50 [34]: -4.90 M; cytotoxicity log GI50 [13]: -4.84 M
COc1ccc(-n2c(CCC(=O)O)nc3c2C(=O)c2ccccc2C3=O)cc1 [Compound 62]						-4.46 M							-4.55 M			cytotoxicity log GI50 [35]: -4.48 M
CC(=O)NC1=C(NCCC(C)C)C(=O)c2ccccc2C1=O [Compound 35]																cytotoxicity log GI50 [33]: -7.52 M
Cc1nc2c(n1CCO)C(=O)c1ccccc1C2=O [Compound 16]	-4.61 M	-4.72 M	-4.93 M		-4.95 M	-4.84 M		-4.70 M	-5.59 M	-4.78 M	-4.59 M		-4.63 M		-4.82 M	cytotoxicity log GI50 [4]: -4.72 M; cytotoxicity log GI50 [31]: -4.58 M; cytotoxicity log GI50 [32]: -4.74 M; cytotoxicity log GI50 [19]: -4.58 M; cytotoxicity against tumor cells (in words) [36]: comparable to those of compounds 6-14; cytotoxicity log GI50 [9]: -4.67 M; cytotoxicity log GI50 [33]: -4.60 M; cytotoxicity log GI50 [34]: -4.69 M; cytotoxicity log GI50 [10]: -4.78 M
CCCC(C)n1c(C)nc2c1C(=O)c1ccccc1C2=O (stereo not drawn) [Compound 9]		-5.26 M		-5.22 M	-4.88 M		-5.34 M		-4.90 M	-5.17 M	-5.07 M	-5.07 M	-5.06 M	-4.78 M	-4.81 M	cytotoxicity log GI50 [8]: -4.76 M; cytotoxicity log GI50 [24]: -4.91 M; cytotoxicity log GI50 [26]: -4.90 M; cytotoxicity log GI50 [27]: -4.89 M
O=C(O)CCc1nc2c(n1-c1ccccc1)C(=O)c1ccccc1C2=O [Compound 60]		-4.30 M				-4.42 M								-7.65 M		cytotoxicity log GI50 [35]: -4.19 M
CCC(C)Cn1c(C)nc2c1C(=O)c1ccccc1C2=O (stereo not drawn) [Compound 13]				-4.76 M	-4.82 M		-4.83 M	-5.30 M	-4.74 M	-5.00 M	-5.27 M		-4.71 M	-4.69 M	-4.68 M	cytotoxicity log GI50 [4]: -4.70 M; cytotoxicity log GI50 [16]: -5.54 M; cytotoxicity log GI50 [19]: -5.55 M; cytotoxicity log GI50 [26]: -4.77 M; cytotoxicity log GI50 [27]: -4.75 M
CCC(C)n1c(C)nc2c1C(=O)c1ccccc1C2=O (stereo not drawn) [Compound 6]	-4.49 M	-4.50 M	-4.49 M	-4.57 M	-4.57 M		-4.71 M	-4.84 M	-4.74 M	-4.55 M	-4.47 M	-4.57 M	-4.64 M	-4.66 M	-4.48 M	cytotoxicity log GI50 [3]: -4.57 M; cytotoxicity log GI50 [16]: -4.55 M; cytotoxicity log GI50 [20]: -4.51 M; cytotoxicity log GI50 [10]: -4.55 M; cytotoxicity log GI50 [26]: -4.48 M; cytotoxicity log GI50 [14]: -4.43 M; cytotoxicity log GI50 [27]: -4.49 M
CCCC(C)NC1=C(NC(C)=O)C(=O)c2ccccc2C1=O (stereo not drawn) [Compound 33]			-4.44 M		-4.13 M	-4.19 M			-4.20 M					-4.32 M		
Cc1nc2c(n1CC(C)(C)C)C(=O)c1ccccc1C2=O [Compound 14]	-4.18 M				-4.37 M		-4.23 M	-4.44 M			-4.25 M		-4.25 M	-4.78 M		
CCC(C)CNC1=C(NC(C)=O)C(=O)c2ccccc2C1=O (stereo not drawn) [Compound 37]	-4.25 M		-4.45 M		-4.50 M				-4.68 M						-4.17 M	
